The values that follow come from PubChem BioAssay (NCI).

Some test systems named below: COLO 205 colon; OVCAR-8 ovarian; K-562 leukemia; NCI-H522 lung; NCI/ADR-RES ovarian; MALME-3M melanoma; SK-OV-3 ovarian; OVCAR-4 ovarian; HT29 colon; HL-60(TB) leukemia.
What all share (test): NCI anticancer screen, dose series, 48 h

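Briefly, cells in 96-well plates were exposed to five compound concentrations for 48 h, and endpoints were estimated by linear interpolation. GI50 = concentration required for 50% inhibition of growth. TGI denotes the concentration required for complete inhibition of growth.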

With `O=C1CCc2c(sc3[nH]c(=S)n(Cc4ccc(Cl)cc4)c(=O)c23)C1`, the GI50 with COLO 205 colon is 1.92 µM; in the experiment with OVCAR-8 ovarian it was 0.468 µM; in the experiment on K-562 leukemia it was 0.324 µM; with NCI-H522 lung it was 0.34 µM; in the experiment on NCI/ADR-RES ovarian, 0.408 µM; in the experiment with MALME-3M melanoma, 0.972 µM. In addition, the GI50 in the experiment on SK-OV-3 ovarian is 2.86 µM; in the experiment with OVCAR-4 ovarian, 0.388 µM; in the experiment on HT29 colon, 3.27 µM; in the experiment on HL-60(TB) leukemia, 0.347 µM. Besides, the TGI was 3.71 µM with COLO 205 colon; above 100 µM in the experiment with OVCAR-8 ovarian; above 100 µM in the experiment with K-562 leukemia; 1.68 µM in the experiment with NCI-H522 lung; above 41.8 µM in the experiment on NCI/ADR-RES ovarian; 3.9 µM in the experiment with MALME-3M melanoma. The TGI is 8.92 µM in the experiment on SK-OV-3 ovarian, 28.2 µM in the experiment on OVCAR-4 ovarian, above 100 µM in the experiment on HT29 colon and 1.81 µM in the experiment with HL-60(TB) leukemia.
For the molecule `O=C(/C=C/c1ccc(C(F)(F)F)cc1)c1ccc(Nc2nc(NCCO)nc(Nc3ccc(Cl)cc3)n2)cc1`, the GI50 in the experiment with COLO 205 colon is 4.8 µM; in the experiment on OVCAR-8 ovarian, 5.66 µM; in the experiment with K-562 leukemia, 2.83 µM; in the experiment with NCI-H522 lung, 7.82 µM; in the experiment with NCI/ADR-RES ovarian, 5.58 µM; in the experiment on MALME-3M melanoma, 13.9 µM. For the same molecule, the GI50 with SK-OV-3 ovarian was 13.4 µM; with OVCAR-4 ovarian it was 4.14 µM; in the experiment on HT29 colon, 2.32 µM; in the experiment on HL-60(TB) leukemia, 12.2 µM. The TGI in the experiment on COLO 205 colon was 17.3 µM; in the experiment with OVCAR-8 ovarian it was 31.3 µM; with K-562 leukemia, above 100 µM; in the experiment with NCI-H522 lung, 23.6 µM; in the experiment with NCI/ADR-RES ovarian, 26 µM; in the experiment on MALME-3M melanoma it was 28.5 µM. Also, the TGI in the experiment on SK-OV-3 ovarian amounted to 34.3 µM; in the experiment with OVCAR-4 ovarian, 15.5 µM; in the experiment with HT29 colon it was 6.37 µM; in the experiment with HL-60(TB) leukemia, 51.8 µM.
`COC(=O)/C=C/c1cc2c(cc1-c1c(C(=O)O)cc(OC)c(OC)c1OC)OCO2`: the TGI in the experiment with COLO 205 colon, in the experiment with OVCAR-8 ovarian, with K-562 leukemia, with NCI-H522 lung, in the experiment on NCI/ADR-RES ovarian and in the experiment on MALME-3M melanoma was above 10 µM each time. In addition, the TGI in the experiment on SK-OV-3 ovarian, in the experiment with OVCAR-4 ovarian, in the experiment with HT29 colon and with HL-60(TB) leukemia was above 10 µM throughout.
Consider `O=C1C[C@@H]2/C(=C(O)\C=C\c3ccccc3)C(=O)C=C[C@@H]2O1`, for which the GI50 in the experiment with COLO 205 colon was 0.992 µM; in the experiment on OVCAR-8 ovarian, 3.06 µM; with K-562 leukemia, 0.449 µM; in the experiment on NCI-H522 lung it was 0.206 µM; with NCI/ADR-RES ovarian, 0.69 µM; in the experiment with MALME-3M melanoma, 1.42 µM. Besides, the GI50 is 4.86 µM in the experiment on SK-OV-3 ovarian, 3.64 µM in the experiment with OVCAR-4 ovarian, 0.844 µM in the experiment with HT29 colon and 1.57 µM in the experiment with HL-60(TB) leukemia. In addition, the TGI in the experiment on COLO 205 colon was 2.62 µM; in the experiment on OVCAR-8 ovarian it was 12.3 µM; in the experiment on K-562 leukemia it was above 100 µM; in the experiment on NCI-H522 lung, 0.615 µM; in the experiment with NCI/ADR-RES ovarian, 3.4 µM; in the experiment with MALME-3M melanoma, 3 µM. The TGI amounted to 16.9 µM in the experiment with SK-OV-3 ovarian, 13 µM in the experiment with OVCAR-4 ovarian, 2.4 µM with HT29 colon and 5.93 µM in the experiment on HL-60(TB) leukemia.
Take `O=C1c2ccccc2S(=O)(=O)c2cc(-c3nn[nH]n3)ccc21`: the TGI in the experiment on COLO 205 colon, with OVCAR-8 ovarian, in the experiment on K-562 leukemia, with NCI-H522 lung, in the experiment with NCI/ADR-RES ovarian and in the experiment on MALME-3M melanoma was above 100 µM each time. The TGI in the experiment on SK-OV-3 ovarian, in the experiment with OVCAR-4 ovarian, in the experiment with HT29 colon and in the experiment on HL-60(TB) leukemia was above 100 µM throughout.
In the case of `OCC#Cc1ccccc1C#CCCCCCC#Cc1ccccc1C#CCO`, the GI50 in the experiment with COLO 205 colon is 22.8 µM; with OVCAR-8 ovarian, 17.1 µM; in the experiment on K-562 leukemia, 22.4 µM; in the experiment on NCI-H522 lung, 14.6 µM; in the experiment on NCI/ADR-RES ovarian, 18.8 µM; in the experiment on MALME-3M melanoma, 20.7 µM. Further, the GI50 with SK-OV-3 ovarian was 31 µM; in the experiment on OVCAR-4 ovarian, 41 µM; in the experiment with HT29 colon, 21.6 µM; in the experiment with HL-60(TB) leukemia it was 18.8 µM. Besides, the TGI worked out at 72.2 µM in the experiment with COLO 205 colon; 42.1 µM in the experiment with OVCAR-8 ovarian; 57.7 µM with K-562 leukemia; 29.6 µM in the experiment on NCI-H522 lung; 36.7 µM with NCI/ADR-RES ovarian; 52.6 µM in the experiment on MALME-3M melanoma. The TGI was above 100 µM with SK-OV-3 ovarian, above 100 µM in the experiment on OVCAR-4 ovarian, above 100 µM in the experiment with HT29 colon and 41.8 µM in the experiment on HL-60(TB) leukemia.
Take `COc1ccc(-c2ccc(-c3ccc(C(=N)N)o3)o2)cc1`: the GI50 was 1.25 µM with COLO 205 colon; 3.19 µM with OVCAR-8 ovarian; 0.487 µM in the experiment on K-562 leukemia; 1.09 µM in the experiment with NCI-H522 lung; 1.88 µM with NCI/ADR-RES ovarian; 3.97 µM in the experiment on MALME-3M melanoma. Also, the GI50 in the experiment with SK-OV-3 ovarian is 5.63 µM; with OVCAR-4 ovarian, 2.22 µM; with HT29 colon, 0.484 µM; with HL-60(TB) leukemia, 1.23 µM. For the same molecule, the TGI was found to be 2.94 µM in the experiment with COLO 205 colon; 11.4 µM in the experiment with OVCAR-8 ovarian; 2.12 µM in the experiment with K-562 leukemia; 3.48 µM with NCI-H522 lung; 10.1 µM in the experiment with NCI/ADR-RES ovarian; 19.1 µM in the experiment with MALME-3M melanoma. Further, the TGI in the experiment on SK-OV-3 ovarian was 18.7 µM; in the experiment with OVCAR-4 ovarian, 12.2 µM; in the experiment on HT29 colon it was 2.82 µM; with HL-60(TB) leukemia it was 3.16 µM.
Turning to `O=c1c(O)c(-c2cc(O)c(O)c(O)c2)oc2cc(O)cc(O)c12`, the TGI was above 100 µM in the experiment with COLO 205 colon; 33.2 µM in the experiment with OVCAR-8 ovarian; above 100 µM in the experiment on K-562 leukemia; above 100 µM with NCI-H522 lung; 53.2 µM in the experiment on NCI/ADR-RES ovarian; above 100 µM in the experiment with MALME-3M melanoma. Moreover, the TGI is above 100 µM in the experiment on SK-OV-3 ovarian, 30.2 µM with OVCAR-4 ovarian, 38.9 µM with HT29 colon and above 100 µM in the experiment with HL-60(TB) leukemia.
As for `C#CCOc1cccc(Nc2ncnc3cc(NC(=O)CCl)ccc23)c1`, the GI50 in the experiment with COLO 205 colon was 5.04 µM; in the experiment with OVCAR-8 ovarian, 3.32 µM; in the experiment with K-562 leukemia it was 0.628 µM; with NCI-H522 lung, 1.46 µM; in the experiment on NCI/ADR-RES ovarian, 4.13 µM; in the experiment on MALME-3M melanoma, 5.21 µM. For the same molecule, the GI50 in the experiment on SK-OV-3 ovarian is 4.36 µM; in the experiment with OVCAR-4 ovarian, 12.1 µM; with HT29 colon, 2.08 µM; in the experiment on HL-60(TB) leukemia, 3.29 µM. The TGI is 19.8 µM in the experiment on COLO 205 colon; 11 µM in the experiment with OVCAR-8 ovarian; 4.69 µM in the experiment with K-562 leukemia; 3.34 µM with NCI-H522 lung; 42.9 µM in the experiment with NCI/ADR-RES ovarian; 20.5 µM in the experiment on MALME-3M melanoma. The TGI was 17.2 µM with SK-OV-3 ovarian, 35.7 µM in the experiment on OVCAR-4 ovarian, 6.11 µM in the experiment on HT29 colon and 12.5 µM in the experiment with HL-60(TB) leukemia.
